Series [1] has as its system uterine cancer cell line CRL-1622. The series is described as follows: Tumor growth in 615 strain mouse model of human uterine cancer (Example 6). Particulars: day 31 after tumor inoculation; 30 days dosing; AY/NY 0.3 ml/day oral, MMC 0.8 mg/kg/day s.c. The class given is in vivo, 615 mice. An excerpt: The following example illustrates the benefit of a biological composition of the invention in a 615 strain mouse model of human uterine cancer. The growth of the tumor in the mice was studied.
Murine transplantable uterine cancer type CRL-1622 closely resembles the human uterine cancer pathology. The uterine cancer cell line CRL-1622 can be ordered from the American Type Culture Collection.
(§1) The biological composition comprising 10^8 cells per ml of activated and conditioned yeast cells of the strain Saccharomyces carlsbergensis Hansen strain AS2.605 was prepared by the methods described in Section 5.1 and subsections therein.
The animals used to generate the uterine cancer cells for the experiments were female 615 mice (obtainable from the Chinese Academy of Military Medical Sciences, Beijing, China), 4 to 6 months, having an average body weight of about 20 to 22 gram. About 1.2×10^7 viable tumor cells of the uterine cancer cell line CRL-1 622 (obtainable from the Cancer Institute, Chinese Academy of Medical Sciences, Beijing, China) in about 0.2 ml culture suspension were injected subcutaneously into the animals. […]
The mice received the biological composition, untreated yeast cells, MMC or saline on the same day as the tumor cells were transplanted. […] The weight of the mice and the weight of the tumor were determined by standard techniques.

Series [2] shares this test system. The series is described as follows: Survival in 615 strain mouse model of human uterine cancer (Example 7). The note with it: 2AY/2NY 0.5 ml/day oral; for Number of live animals remaining in the groups after 30 days of treatment: 30 mice per group, 2MMC 1.2 mg/kg/day s.c. Type of series: in vivo. The method, then: The following example illustrates the benefit of a biological composition of the invention in a model of human uterine cancer in a 615 strain mouse. The survival time of mice after tumor injection and treatment was studied.
as §1
The animals were prepared in a similar manner as described in Section 6.1. 7.2 Experimental Design The mice injected with tumor cells were immediately divided into 4 experimental groups of ten mice per group and one control group. The four experimental groups were triplicated (i.e., using a total of 120 mice in the experimental groups). In group 2AY, the mice received 0.5 ml of the biological composition once per day. In group 2NY, the mice received 0.5 ml of the untreated yeast cells once per day. In group 2MMC, the mice were injected subcutaneously with 1.2 mg of mitomycin C (MMC) per kg body weight per day. In group 2CK1, the mice received 0.5 ml of physiological saline once per day.
The mice received the biological composition, untreated yeast cells, MMC or saline on the same day as the tumor cells were transplanted. The mice in group 2CK2 also started receiving saline on the same day as the other four groups. The biological composition, untreated yeast cells and saline were administered orally by a feeding tube and the MMC by subcutaneous injection for 30 consecutive days. The mice were observed over 6 months from the day of tumor inoculation and survival was recorded. The weight of the mice and the weight of the tumor were determined by standard techniques.

The test system of series [3] is uterine cancer cell line HTB-114. The series is described as follows: Tumor growth in kun ming mouse model of human uterine cancer (Example 8). Type of series: in vivo. Particulars: day 31 after tumor inoculation; 30 days dosing; AY/NY 0.3 ml/day oral, VCR 3 mg/kg/day i.v.
Text: The following example illustrates the benefit of a biological composition of the invention in a kun ming mouse model of human uterine cancer. The growth of the tumor in the mice was studied.
Murine transplantable uterine cancer type HTB-114 closely resembles the human uterine cancer pathology. The uterine cancer cell line HTB-114 can be ordered from the American Type Culture Collection.
as §1
The animals used to generate the uterine cancer cells for the experiments were female kun ming mouse (obtainable from the Chinese Academy of Military Medical Sciences, Beijing, China), 5 to 6 months, having an average body weight of about 20 to 22 gram. About 1.2×10^7 viable tumor cells of the uterine cancer cell line HTB-114 (obtainable from the Cancer Institute, Chinese Academy of Medical Sciences, Beijing, China) in about 0.2 ml culture suspension were injected subcutaneously into the animals. […]
The mice received the biological composition, untreated yeast cells, VCR or saline on the same day as the tumor cells were transplanted. […] The weight of the mice and the weight of the tumor were determined by standard techniques.

For series [4] the test system is unchanged. The series is described as follows: Survival in kun ming mouse model of human uterine cancer (Example 9). Type of series: in vivo. Particulars: 2AY/2NY 0.5 ml/day oral; for Number of live animals remaining in the groups after 30 days of treatment: 30 mice per group, 2VCR 4.5 mg/kg/day i.v. How it is done:
The following example illustrates the benefit of a biological composition of the invention in a kun ming mouse model of human uterine cancer. The survival time of mice after tumor injection and treatment was studied.
The biological composition comprising 10^8 cells per ml of activated and conditioned yeast cells of the strain Saccharomyces cartsbergensis Hansen strain AS2.605 was prepared by the methods described in Section 5.1 and subsections therein.
The animals were prepared in a similar manner as described in Section 8.1.
The mice injected with tumor cells were immediately divided into 4 experimental groups of ten mice per group and one control group. The four experimental groups were triplicated (i.e., using a total of 120 mice in the experimental groups). In group 2AY, the mice received 0.5 ml of the biological composition once per day. In group 2NY, the mice received 0.5 ml of the untreated yeast cells once per day. In group 2VCR, the mice were injected intravenously with 4.5 mg of […] (VCR) per kg body weight per day. In group 2CK1, the mice received 0.5 ml of physiological saline once per day.
The mice received the biological composition, untreated yeast cells, VCR or saline on the same day as the tumor cells were transplanted. The mice in group 2CK2 also started receiving saline on the same day as the other four groups. The biological composition, untreated yeast cells and saline were administered orally by a feeding tube and the VCR by intravenous injection for 30 consecutive days. The mice were observed over 6 months from the day of tumor inoculation and survival was recorded. The weight of the mice and the weight of the tumor were determined by standard techniques.

Setting [5] is: 0 month after cessation of treatment.
Setting [6] is: 1 month after cessation of treatment.
Setting [7] is: 2 months after cessation of treatment.
Setting [8] is: 3 months after cessation of treatment.
[9] abbreviates: 4 months after cessation of treatment.
The mark [10] stands for this setting: 5 months after cessation of treatment.
The mark [11] stands for this setting: 6 months after cessation of treatment.
Where [12] appears, read: surviving mice after 6 months observation, 2MMC 1.2 mg/kg/day s.c. for 30 days.
Where [13] appears, read: surviving mice after 6 months observation, 2VCR 4.5 mg/kg/day i.v. for 30 days.

SMILES strings stand for the structures.

As for `CO[C@@]12[C@H](COC(N)=O)C3=C(C(=O)C(C)=C(N)C3=O)N1C[C@@H]1N[C@@H]12` [MMC, mitomycin C], the entries for the “mean weight of mice and standard deviation” value in series [1] and in series [2] (setting [12]) were 18.3 ± 3.1 g and “all animals dead”, respectively. Moreover, the “mean weight of tumor nodules and standard deviation” value in series [1] is 3.56 ± 2.32 mg; in series [2] (setting [12]), “all animals dead”. The “Number of live animals remaining in the groups after 30 days of treatment” value (“Number of live animals remaining” below) in series [2] (setting [5]) is recorded as 30; in series [2] (setting [6]), 28; in series [2] (setting [7]), 26; in series [2] (setting [8]) it was 18; in series [2] (setting [9]), 7; in series [2] (setting [10]) it was 0. Moreover, the “Number of live animals remaining” value in series [2] (setting [11]) came out at 0. Moreover, the survival time result in series [2] (2MMC 1.2 mg/kg/day s.c. for 30 days, observed over 6 months) is “all died during the experiment”.
Turning to `CC[C@]1(O)C[C@@H]2CN(CCc3c([nH]c4ccccc34)[C@@](C(=O)OC)(c3cc4c(cc3OC)N(C)[C@H]3[C@@](O)(C(=O)OC)[C@H](OC(C)=O)[C@]5(CC)C=CCN6CC[C@]43[C@@H]65)C2)C1` [VCR, vinblastine], the results for the “mean weight of mice and standard deviation” value in series [3] and in series [4] (setting [13]) were 18.3 ± 3.3 g and “all animals dead”, respectively. Besides, the “mean weight of tumor nodules and standard deviation” value in series [3] is listed as 4.36 ± 2.45 g; in series [4] (setting [13]), “all animals dead”. Further, the “Number of live animals remaining” value is given as 30 in series [4] (setting [5]); 28 in series [4] (setting [6]); 19 in series [4] (setting [7]); 11 in series [4] (setting [8]); 3 in series [4] (setting [9]); 0 in series [4] (setting [10]). Also, the “Number of live animals remaining” value in series [4] (setting [11]) is listed as 0. For the same compound, in series [4] (2VCR 4.5 mg/kg/day i.v. for 30 days, observed over 6 months), the survival time result is listed as “all died during the experiment”.
